Assays:
[1] = Treatment-related adverse events (CTCAE v4.03), PATRIOT phase I; assay type: in vivo; conditions: for TRAE Overall events: n: Total
Protocol: For part A (dose escalation; Figure 1, A and B), the starting dose of 20 mg was selected based on animal toxicity studies. Dosing was continuous, and escalation used a modified Fibonacci method. Initial dose escalation was planned in single patient cohorts, changing to 3+3 design after the first grade-2 toxicity was seen. […] DLT definitions are in the Supplemental Methods.
For part B, all patients received the RP2D as defined for part A. Part B allowed for different schedules (continuous/intermittent) to be assessed. Initially, a continuous dosing schedule was used for the first 6 patients. […] Pretreatment biopsy was mandatory in part B. DNA-Seq of archival tumor material or review of external tumor sequencing was used to enrich for patients with putative genomic markers of sensitivity to ATRi, based on preclinical data, including oncogene amplification or driver mutation, ATM/G1 pathway defects (alteration in ATM, CHK2, or other components of the pathway causing G1 cell-cycle arrest after DNA damage), SWI/SNF (switch/sucrose nonfermentable, a chromatin-remodeling complex) pathway defect, genomic instability/homologous recombination deficit (HRD), or defect in a gene synthetically lethal with ATRi in published data ([46], [47]) (Figure 1B and Supplemental Table 3).
Patients were assessed weekly during cycle 1 and twice weekly thereafter, with safety assessments including blood hematology and biochemistry, physical examination, and toxicity scoring.

[2] = test system: peripheral blood immune cells; test: Flow cytometry immune profiling of peripheral blood; assay type: in vivo, human
Protocol: DNA-Seq of tumor and matched buffy coats was either by whole-exome sequencing or a custom-designed panel targeting all exons of genes of interest for 173 genes, including potential markers of sensitivity to ATRi. ACK-lysed whole blood or PBMCs were stained for flow cytometry using 8 multicolor panels. Plasma cytokines were assessed using the Bio-Plex Pro 27-Plex Panel (Bio-Rad). See Supplemental Methods for full information. […]
Peripheral blood was drawn into 8 mL EDTA tubes (Vacutainer, BD) and analyzed within 24
hours. ACK-lysed whole blood (for myeloid panel) or PBMC from density gradient centrifugation
(for lymphocyte panel) were used. Samples were surface-stained with antibodies for 30 mins at
4 OC. Samples were analyzed on a LSR Fortessa (BD Biosciences). FACS analyses were
CD56 PE-Dazzle 594 Biolegend
CD62L PerCp Cy5.5 Biolegend
NKp30 PerCp Cy5.5 Biolegend
TIGIT PerCp Cy5.5 eBioscience
CD45RO Pacific Blue Biolegend
CTLA-4 PE-Dazzle 594 Biolegend
CD57 PerCp Cy5.5 Biolegend
CD38 PE-Dazzle 594 Biolegend
CD11b ICRF44 PE Biolegend
HLA-DR L243 PerCP Cy5.5 Biolegend
CD16 3G8 APC-C7 Biolegend

[3] = Change in full blood count parameters with time (bone marrow toxicity); assay type: in vivo, human; design: Lymphocyte change / Monocyte change / Hb change: unit not given here; conditions: for Neutrophil / Platelet: in 10^9/L (unit assumed)
Protocol: Patients were assessed weekly during cycle 1 and twice weekly thereafter, with safety assessments including blood hematology and biochemistry, physical examination, and toxicity scoring. Safety and tolerability were assessed using Common Terminology Criteria for Adverse Events (CTCAE), version 4.03.

[4] = test system: tumor biopsies; test: Stromal TIL count (H&E) and PD-L1 IHC in tumor biopsies; assay type: in vivo, human
Description: Supplementary Pharmacodynamic methods
Formalin fixed paraffin-embedded tumor samples were used. […]
Quantification of tumor-infiltrating lymphocytes was done using a semi-automated method in QuPath (53). Scanned H&E sections were first segmented into tumor and stroma, using a random trees machine-learning classifier, for each tumor section. Nuclei were segmented using Stardist (54), then stromal nuclei were sorted by size (area <20 µm2) and circularity (>0.85), using small circular nuclei to approximate lymphocyte

[5] = 160 mg BD intermittent schedule
[6] = part B, 160mg (continuous), change from relative day 0, per patient and time point
[7] = part B, 160mg (continuous), per patient and time point
[8] = patient B138, part B, 160mg (intermittent), time point C1D1
[9] = patient B466, part B, 160mg (intermittent), C26D15, relative day 589
[10] = patient B466, part B, 160mg (intermittent), C26D15, relative day 589, change from Day 0
[11] = patient B466, part B, 160mg (intermittent), C27D15, relative day 603
[12] = patient B466, part B, 160mg (intermittent), C27D15, relative day 603, change from Day 0
[13] = patient B466, part B, 160mg (intermittent), C28D15, relative day 617
[14] = patient B466, part B, 160mg (intermittent), C28D15, relative day 617, change from Day 0
[15] = patient B466, part B, 160mg (intermittent), C29D15, relative day 645
[16] = patient B466, part B, 160mg (intermittent), C29D15, relative day 645, change from Day 0
[17] = patient B466, part B, 160mg (intermittent), C30D15, relative day 673
[18] = patient B466, part B, 160mg (intermittent), C30D15, relative day 673, change from Day 0
[19] = patient B466, part B, 160mg (intermittent), C31D15, relative day 701
[20] = patient B466, part B, 160mg (intermittent), C31D15, relative day 701, change from Day 0

C[C@@H]1COCCN1c1cc(C2([S@](C)(=N)=O)CC2)nc(-c2cc[nH]c3nccc2-3)n1 [ceralasertib]
TRAE Overall events: n (%) ([1]; 40 mg BD, G1–2): 7 (100) | TRAE Overall events: n (%) ([1]; 40 mg BD, G3): 0 | TRAE Overall events: n ([1]; 40 mg BD): 7 | TRAE Overall events: n (%) ([1]; 80 mg BD, G1–2): 18 (78) | TRAE Overall events: n (%) ([1]; 80 mg BD, G3): 5 (22) | TRAE Overall events: n ([1]; 80 mg BD): 23 | Tolerability of intermittent versus continuous schedule ([1]; 160 mg BD): better tolerated | Incidence of G3 leukopenia ([1]; 160 mg BD continuous schedule): 8% | Incidence of G3 or greater anemia ([1]; 160 mg BD continuous schedule): 33% | TRAE Overall events: n (%) ([1]; 160 mg BD continuous, G1–2): 44 (90) | TRAE Overall events: n (%) ([1]; 160 mg BD continuous, G3): 5 (10) | TRAE Overall events: n ([1]; 160 mg BD continuous): 49 | Incidence of G3 leukopenia [1, 5]: 0% | Incidence of G3 or greater anemia [1, 5]: 9% | TRAE Overall events: n (%) ([1]; 160 mg BD intermittent, G1–2): 100 (89) | TRAE Overall events: n (%) ([1]; 160 mg BD intermittent, G3): 11 (10) | TRAE Overall events: n (%) ([1]; 160 mg BD intermittent, G4): 1 (1) | TRAE Overall events: n ([1]; 160 mg BD intermittent): 112 | TRAE Overall events: n (%) ([1]; 240 mg BD, G1–2): 26 (77) | TRAE Overall events: n (%) ([1]; 240 mg BD, G3): 8 (24) | TRAE Overall events: n (%) ([1]; 240 mg BD, G4): 7 (21) | Related SAE ([1]; 20 and 40 mg dose levels): N o related SAE | Treatment-related deaths ([1]; all 67 treated patients): no treatment-related deaths | Patients requiring dose reduction or interruption for toxicity ([1]; continuous schedule (incl. part A), 6 of 12): 50% | Patients withdrawn due to toxicity ([1]; dose-escalation phase): Four | Patients withdrawn due to toxicity ([1]; dose-expansion phase): 1 | Patients requiring dose reduction or interruption for toxicity ([1]; intermittent schedule, 10 of 35): 29% | CD8+ T cells in peripheral blood ([2]; 160 mg BD intermittent): trend toward increased | Classical and intermediate monocytes ([2]; 160 mg BD intermittent): reduction | Granulocytic MDSCs (gMDSC) ([2]; 160 mg BD intermittent): increased | Monocytic MDSCs (mMDSCs) ([2]; 160 mg BD intermittent): reduced | Naive and central memory CD8+ and CD4+ T cells ([2]; 160 mg BD intermittent): increased | PD-1–positive CD8+ T cells ([2]; 160 mg BD intermittent): reduction | Tregs in peripheral blood ([2]; 160 mg BD intermittent, 8 participants): reduction | Memory CD4-TEMRA cells ([2]; day 29): increased frequencies | NKG2A- and CD69-positive NK cells ([2]; normalized after the 2-week break): trend toward increased | Platelets and other hematological parameters, intermittent versus continuous schedule ([3]; 160 mg BD, recovering in the treatment break): more favorable | Hb change [3, 6]: 0 | Lymphocyte change [3, 6]: 0 | Monocyte change [3, 6]: 0 | Platelet change [3, 6]: 0 | Neutrophil [3, 7]: 3.29 | Platelet [3, 7]: 210 | Hb ([3]; part B, dose cohort 160mg (continuous), per patient and time point): 13.7 | Hb [3, 8]: 11.5 | Neutrophil [3, 8]: 8.54 | Platelet [3, 8]: 213 | Hb [3, 9]: 101 g/L | Lymphocyte change [3, 10]: 0.4 | Monocyte change [3, 10]: 0.2 | Platelet change [3, 10]: 125 | Neutrophil [3, 9]: 4.5 | Platelet [3, 9]: 571 | Hb [3, 11]: 96 | Lymphocyte change [3, 12]: 0 | Monocyte change [3, 12]: -0.8 | Platelet change [3, 12]: -198 | Neutrophil [3, 11]: 2.7 | Platelet [3, 11]: 248 | Hb [3, 13]: 99 | Lymphocyte change [3, 14]: 0 | Monocyte change [3, 14]: 0.2 | Platelet change [3, 14]: 142 | Neutrophil [3, 13]: 2.7 | Platelet [3, 13]: 588 | Hb [3, 15]: 100 g/L | Lymphocyte change [3, 16]: 0.5 | Monocyte change [3, 16]: -0.6 | Platelet change [3, 16]: 143 | Neutrophil [3, 15]: 4.6 | Platelet [3, 15]: 589 | Hb [3, 17]: 103 g/L | Lymphocyte change [3, 18]: 0.5 | Monocyte change [3, 18]: 0.1 | Platelet change [3, 18]: 118 | Neutrophil [3, 17]: 3.9 | Platelet [3, 17]: 564 | Hb [3, 19]: 101 g/L | Monocyte change [3, 20]: 0.2 | Platelet change [3, 20]: 172 | Platelet [3, 19]: 618 | Stromal TILs, paired samples ([4]; a responding patient (not in 3 nonresponders)): appeared to increase | Immune-cell infiltration and PD-L1 staining on immune cells in paired biopsies ([4]; responding patient, 40 mg BD, HNSCC, 2 weeks): increase

Reference: article PMC10786692 (The Journal of Clinical Investigation, 2024)
